Data from patent publication US20020048549A1, “Radioactive transition metal nitride heterocomplex” (priority 1996, published 2002).
Like-named read-outs stand apart in the source and are kept apart here. Blank lines part the entries; values can stand above or below the compound they belong to.

Assay: Biodistribution of 99mTc(N)(X)(DTC)+ heterocomplexes in rats
Type: in vivo, male Spraque-Dawley rats (SD rats)
Description: The biodistribution of a ^99mTc nitride heterocomplex represented by the general formula ^99mTc(N)(X)(Y) was investigated as follows: ^99mTc nitride heterocomplexes were synthesized using DTC as a bidentate ligand Y and each of the diphosphine compounds X described below, and the biodistribution in rats of each heterocomplex was investigated.
Before being injected into rats, the contents of the vial were diluted with phosphate buffer (0.1 mol/dm^3, pH=7.06) containing 10% Tween 80 ([…]). The complexes were stable in the solutions and in human plasma for at least 6 hours.
The biodistribution was measured using male Spraque-Dawley rats (SD rats) weighing 200 to 250 g. After 24 hours fasting, the rats were put under intraperitoneal anesthesia and given an injection in the jugular vein. Then, the organs were excised from the rats at different intervals of time, washed and then weighed. In addition, blood samples were collected and then weighed. The data on the biodistribution are expressed as the mean±significant difference of the percentage of radioactivity level per gram of the organ weight based on the dose of radioactivity, (% dose/g). The measurement was carried out using groups of 5 rats each.

Bone % dose/g: 0.209 ± 0.01 % dose/g
Heart % dose/g: 1.399 ± 0.08 % dose/g
Liver % dose/g: 3.385 ± 0.81 % dose/g
Spleen % dose/g: 2.739 ± 0.07 % dose/g
Blood % dose/g (0 min after injection): 3.220 ± 0.45 % dose/g
Brain % dose/g (0 min after injection): 0.120 ± 0.00 % dose/g
Intestine % dose/g (0 min after injection): 0.906 ± 0.03 % dose/g
Kidney % dose/g (0 min after injection): 5.702 ± 0.732 % dose/g
Lung % dose/g (0 min after injection): 3.568 ± 0.94 % dose/g
Muscle % dose/g (0 min after injection): 0.134 ± 0.01 % dose/g
Stomach % dose/g (0 min after injection): 0.752 ± 0.09 % dose/g
Blood % dose/g (2 min after injection): 1.025 ± 0.02 % dose/g
Bone % dose/g (2 min after injection): 0.265 ± 0.04 % dose/g
Brain % dose/g (2 min after injection): 0.065 ± 0.01 % dose/g
Heart % dose/g (2 min after injection): 0.728 ± 0.04 % dose/g
Intestine % dose/g (2 min after injection): 1.694 ± 0.18 % dose/g
Kidney % dose/g (2 min after injection): 4.941 ± 0.60 % dose/g
Liver % dose/g (2 min after injection): 7.723 ± 0.20 % dose/g
Lung % dose/g (2 min after injection): 2.040 ± 0.234 % dose/g
Muscle % dose/g (2 min after injection): 0.077 ± 0.00 % dose/g
Spleen % dose/g (2 min after injection): 5.018 ± 0.02 % dose/g
Stomach % dose/g (2 min after injection): 0.0603 ± 0.03 % dose/g
Blood % dose/g (10 min after injection): 0.355 ± 0.03 % dose/g
Bone % dose/g (10 min after injection): 0.268 ± 0.10 % dose/g
Brain % dose/g (10 min after injection): 0.040 ± 0.00 % dose/g
Heart % dose/g (10 min after injection): 0.736 ± 0.12 % dose/g
Intestine % dose/g (10 min after injection): 2.861 ± 0.74 % dose/g
Kidney % dose/g (10 min after injection): 6.910 ± 0.081 % dose/g
Liver % dose/g (10 min after injection): 4.686 ± 0.89 % dose/g
Lung % dose/g (10 min after injection): 1.481 ± 0.10 % dose/g
Muscle % dose/g (10 min after injection): 0.064 ± 0.02 % dose/g
Spleen % dose/g (10 min after injection): 5.334 ± 0.10 % dose/g
Stomach % dose/g (10 min after injection): 0.517 ± 0.16 % dose/g
Blood % dose/g (30 min after injection): 0.333 ± 0.03 % dose/g
Bone % dose/g (30 min after injection): 0.301 ± 0.03 % dose/g
Brain % dose/g (30 min after injection): 0.020 ± 0.00 % dose/g
Heart % dose/g (30 min after injection): 0.652 ± 0.19 % dose/g
Intestine % dose/g (30 min after injection): 7.254 ± 0.46 % dose/g
Kidney % dose/g (30 min after injection): 7.542 ± 1.410 % dose/g
Liver % dose/g (30 min after injection): 7.341 ± 0.38 % dose/g
Lung % dose/g (30 min after injection): 1.015 ± 0.16 % dose/g
Muscle % dose/g (30 min after injection): 0.103 ± 0.02 % dose/g
Spleen % dose/g (30 min after injection): 5.131 ± 0.59 % dose/g
Stomach % dose/g (30 min after injection): 1.135 ± 0.298 % dose/g
Blood % dose/g (1 hr after injection): 0.19 ± 0.01 % dose/g
Bone % dose/g (1 hr after injection): 0.294 ± 0.02 % dose/g
Brain % dose/g (1 hr after injection): 0.025 ± 0.00 % dose/g
Heart % dose/g (1 hr after injection): 0.534 ± 0.02 % dose/g
Intestine % dose/g (1 hr after injection): 7.644 ± 1.01 % dose/g
Kidney % dose/g (1 hr after injection): 6.713 ± 0.83 % dose/g
Liver % dose/g (1 hr after injection): 7.436 ± 1.44 % dose/g
Lung % dose/g (1 hr after injection): 1.011 ± 0.01 % dose/g
Muscle % dose/g (1 hr after injection): 0.075 ± 0.01 % dose/g
Spleen % dose/g (1 hr after injection): 5.073 ± 0.01 % dose/g
Stomach % dose/g (1 hr after injection): 0.932 ± 0.12 % dose/g
Blood % dose/g (2 hr after injection): 0.129 ± 0.02 % dose/g
Bone % dose/g (2 hr after injection): 0.357 ± 0.08 % dose/g
Brain % dose/g (2 hr after injection): 0.025 ± 0.00 % dose/g
Heart % dose/g (2 hr after injection): 0.511 ± 0.05 % dose/g
Intestine % dose/g (2 hr after injection): 6.442 ± 0.59 % dose/g
Kidney % dose/g (2 hr after injection): 6.799 ± 1.348 % dose/g
Liver % dose/g (2 hr after injection): 4.061 ± 0.64 % dose/g
Lung % dose/g (2 hr after injection): 0.962 ± 0.02 % dose/g
Muscle % dose/g (2 hr after injection): 0.102 ± 0.02 % dose/g
Spleen % dose/g (2 hr after injection): 5.507 ± 0.84 % dose/g
Stomach % dose/g (2 hr after injection): 1.701 ± 0.34 % dose/g
Blood % dose/g (4 hr after injection): 0.087 ± 0.00 % dose/g
Bone % dose/g (4 hr after injection): 0.329 ± 0.01 % dose/g
Brain % dose/g (4 hr after injection): 0.018 ± 0.00 % dose/g
Heart % dose/g (4 hr after injection): 0.506 ± 0.04 % dose/g
Intestine % dose/g (4 hr after injection): 4.054 ± 0.39 % dose/g
Kidney % dose/g (4 hr after injection): 7.471 ± 0.03 % dose/g
Liver % dose/g (4 hr after injection): 1.784 ± 0.25 % dose/g
Lung % dose/g (4 hr after injection): 0.670 ± 0.09 % dose/g
Muscle % dose/g (4 hr after injection): 0.08 ± 0.00 % dose/g
Spleen % dose/g (4 hr after injection): 5.055 ± 0.02 % dose/g
Stomach % dose/g (4 hr after injection): 1.220 ± 0.150 % dose/g
Structure (SMILES): COCCN1CC[P+](c2ccccc2)(c2ccccc2)[99Tc-2]2(#[N])([NH]N(C)C(SC)=[S+]2)[P+](c2ccccc2)(c2ccccc2)CC1 [^99mTc(N)(PNP2)(DTC)^+]

Bone % dose/g: 0.198 ± 0.03 % dose/g
Heart % dose/g: 2.704 ± 0.03 % dose/g
Liver % dose/g: 1.5 ± 0.02 % dose/g
Spleen % dose/g: 1.686 ± 0.03 % dose/g
Blood % dose/g (0 min after injection): 1.149 ± 0.04 % dose/g
Brain % dose/g (0 min after injection): 0.096 ± 0.00 % dose/g
Intestine % dose/g (0 min after injection): 2.578 ± 0.350 % dose/g
Kidney % dose/g (0 min after injection): 8.289 ± 0.03 % dose/g
Lung % dose/g (0 min after injection): 2.133 ± 0.03 % dose/g
Muscle % dose/g (0 min after injection): 0.232 ± 0.07 % dose/g
Stomach % dose/g (0 min after injection): 1.121 ± 0.01 % dose/g
Blood % dose/g (2 min after injection): 0.421 ± 0.10 % dose/g
Bone % dose/g (2 min after injection): 2.242 ± 0.02 % dose/g
Brain % dose/g (2 min after injection): 0.035 ± 0.01 % dose/g
Heart % dose/g (2 min after injection): 3.007 ± 0.16 % dose/g
Intestine % dose/g (2 min after injection): 4.188 ± 0.60 % dose/g
Kidney % dose/g (2 min after injection): 9.676 ± 0.620 % dose/g
Liver % dose/g (2 min after injection): 2.778 ± 0.06 % dose/g
Lung % dose/g (2 min after injection): 0.995 ± 0.17 % dose/g
Muscle % dose/g (2 min after injection): 0.264 ± 0.09 % dose/g
Spleen % dose/g (2 min after injection): 1.215 ± 0.1 % dose/g
Stomach % dose/g (2 min after injection): 0.740 ± 0.02 % dose/g
Blood % dose/g (10 min after injection): 0.147 ± 0.02 % dose/g
Bone % dose/g (10 min after injection): 0.204 ± 0.00 % dose/g
Brain % dose/g (10 min after injection): 0.019 ± 0.00 % dose/g
Heart % dose/g (10 min after injection): 2.506 ± 0.10 % dose/g
Intestine % dose/g (10 min after injection): 10.959 ± 1.64 % dose/g
Kidney % dose/g (10 min after injection): 6.559 ± 0.928 % dose/g
Liver % dose/g (10 min after injection): 1.719 ± 0.14 % dose/g
Lung % dose/g (10 min after injection): 0.725 ± 0.104 % dose/g
Muscle % dose/g (10 min after injection): 0.252 ± 0.01 % dose/g
Spleen % dose/g (10 min after injection): 0.856 ± 0.12 % dose/g
Stomach % dose/g (10 min after injection): 0.852 ± 0.118 % dose/g
Blood % dose/g (30 min after injection): 0.098 ± 0.01 % dose/g
Bone % dose/g (30 min after injection): 0.230 ± 0.04 % dose/g
Brain % dose/g (30 min after injection): 0.012 ± 0.00 % dose/g
Heart % dose/g (30 min after injection): 2.551 ± 0.10 % dose/g
Intestine % dose/g (30 min after injection): 10.201 ± 1.28 % dose/g
Kidney % dose/g (30 min after injection): 5.354 ± 1.00 % dose/g
Liver % dose/g (30 min after injection): 0.732 ± 0.08 % dose/g
Lung % dose/g (30 min after injection): 0.446 ± 0.00 % dose/g
Muscle % dose/g (30 min after injection): 0.273 ± 0.05 % dose/g
Spleen % dose/g (30 min after injection): 0.550 ± 0.06 % dose/g
Stomach % dose/g (30 min after injection): 1.511 ± 0.39 % dose/g
Blood % dose/g (1 hr after injection): 0.071 ± 0.00 % dose/g
Bone % dose/g (1 hr after injection): 0.099 ± 0.00 % dose/g
Brain % dose/g (1 hr after injection): 0.014 ± 0.00 % dose/g
Heart % dose/g (1 hr after injection): 2.155 ± 0.29 % dose/g
Intestine % dose/g (1 hr after injection): 5.447 ± 0.87 % dose/g
Kidney % dose/g (1 hr after injection): 4.127 ± 0.178 % dose/g
Liver % dose/g (1 hr after injection): 0.500 ± 0.01 % dose/g
Lung % dose/g (1 hr after injection): 0.329 ± 0.05 % dose/g
Muscle % dose/g (1 hr after injection): 0.236 ± 0.04 % dose/g
Spleen % dose/g (1 hr after injection): 0.238 ± 0.02 % dose/g
Stomach % dose/g (1 hr after injection): 0.892 ± 0.085 % dose/g
Blood % dose/g (2 hr after injection): 0.049 ± 0.00 % dose/g
Bone % dose/g (2 hr after injection): 0.121 ± 0.00 % dose/g
Brain % dose/g (2 hr after injection): 0.009 ± 0.00 % dose/g
Heart % dose/g (2 hr after injection): 2.721 ± 0.06 % dose/g
Intestine % dose/g (2 hr after injection): 2.720 ± 0.11 % dose/g
Kidney % dose/g (2 hr after injection): 3.139 ± 0.20 % dose/g
Liver % dose/g (2 hr after injection): 0.164 ± 0.04 % dose/g
Lung % dose/g (2 hr after injection): 0.312 ± 0.2 % dose/g
Muscle % dose/g (2 hr after injection): 0.268 ± 0.88 % dose/g
Spleen % dose/g (2 hr after injection): 0.300 ± 0.05 % dose/g
Stomach % dose/g (2 hr after injection): 1.521 ± 0.50 % dose/g
Blood % dose/g (4 hr after injection): 0.030 ± 0.00 % dose/g
Bone % dose/g (4 hr after injection): 0.079 ± 0.01 % dose/g
Brain % dose/g (4 hr after injection): 0.009 ± 0.00 % dose/g
Heart % dose/g (4 hr after injection): 2.503 ± 0.13 % dose/g
Intestine % dose/g (4 hr after injection): 1.810 ± 0.716 % dose/g
Kidney % dose/g (4 hr after injection): 2.536 ± 0.12 % dose/g
Liver % dose/g (4 hr after injection): 0.155 ± 0.00 % dose/g
Lung % dose/g (4 hr after injection): 0.219 ± 0.01 % dose/g
Muscle % dose/g (4 hr after injection): 0.245 ± 0.031 % dose/g
Spleen % dose/g (4 hr after injection): 0.195 ± 0.02 % dose/g
Stomach % dose/g (4 hr after injection): 0.485 ± 0.07 % dose/g
elimination from kidney and liver (rats): relatively rapidly eliminated
washout from lung and blood (rats): rapidly washed out
accumulation in heart (rats, throughout the measurement): very large amount
Structure (SMILES): COCCC[P]1(CCCOC)CCN(CCOC)CC[P](CCCOC)(CCCOC)[99Tc+]12(#[N])[NH]N(C)C(SC)=[S]2 [^99mTc(N)(PNP3)(DTC)^+]
